Here are results for three compounds from US20060211700A1, “(R)-8,9-dichloro-2,3,4,4a-tetrahydro-1H,6H-pyrazino[1,2-a]quinoxalin-5-one for controlling IOP and treating glaucoma” (Alcon, Inc., priority 2005, published 2006).

Each structure is given as a SMILES string.

Experiment [1] has as its system lasered (hypertensive) eyes of conscious cynomolgus monkeys. The experiment is described as follows: Acute IOP response in lasered (hypertensive) eyes of conscious cynomolgus monkeys. The settings on record: for IOP % change / IOP Change mmHg: lasered eye; for IOP lowering efficacy (in words): dosed at 300 μg. The class given is in vivo, cynomolgus monkey. As to the method:
Acute IOP Response in Lasered (Hypertensive) Eyes of Conscious Cynomolgus Monkeys
Intraocular pressure (IOP) can be determined with an Alcon Pneumatonometer after light corneal anesthesia with 0.1% proparacaine. Eyes are washed with saline after each measurement. After a baseline IOP measurement, test compound is instilled in one 30 μL aliquot to the right eyes only of nine cynomolgus monkeys. Vehicle is instilled in the right eyes of six additional animals. Subsequent IOP measurements are taken at 1, 3, and 6 hours.
The above method was used to determine the IOP lowering efficacy of 8,9-dichloro-2,3,4,4a-tetrahydro-1H,6H-pyrazino[1,2-a]quinoxalin-5-one when dosed at 300 μg.
The same method was used to evaluate the IOP lowering ability of the R enantiomer of the Compound (substantially free of the S enantiomer), dosed at 300 μg.

In experiment [2] the target is T1, human serotonin receptor clone 5-HT2A (Homo sapiens, UniProt P28223).
T1 construct: expressed in transfected cells; host or cells: CHO-K1
The experiment is described as follows: In vitro functional response (aequorin luminescence) in CHO-K1 cells expressing 5-HT2A. The class given is cell-based. The settings on record: for Emax: CHO-K1, relative to the response of α-methyl-5-HT; for EC50: CHO-K1 cells, aequorin, Gα16. The procedure: (§1) In Vitro Functional Response at 5-HT2 Receptors
(§2) Functional response at the 5-HT2 receptor subtypes was determined using CHO-K1 cells stably expressing mitochondrially-targeted bioluminescent aequorin, Gα16, and one of either human serotonin receptor clone 5-HT2A, 5-HT2B, or 5-HT2C. Prior to testing, cells were loaded in suspension with coelenterazine for 4-16 hours and directly injected onto different concentrations of the test compound. Light emitted from the cells was measured 20-30 seconds following receptor activation. A luminometer was used to record luminescence in response to the test compound. The mean response signal at each of 8-11 different concentrations was integrated to provide an estimation of receptor activation, expressed as the EC50 value. The efficacy of the response (Emax) at the 5-HT2A and 5-HT2B receptors is expressed relative to the response of α-methyl-5-HT under the same assay conditions while the efficacy at 5-HT2C is expressed relative to the response of 5-HT.

Experiment [3] has as its target T2, human serotonin receptor clone 5-HT2B (Homo sapiens, UniProt P41595).
T2 construct: expressed in transfected cells; host or cells: CHO-K1
Kind of experiment: In vitro functional response (aequorin luminescence) in CHO-K1 cells expressing 5-HT2B. The class given is cell-based. Conditions: for Emax: CHO-K1, relative to the response of α-methyl-5-HT; for EC50: CHO-K1 cells, aequorin, Gα16. The procedure:
as §1, §2

For experiment [4], the target named is T3, human serotonin receptor clone 5-HT2C (Homo sapiens, UniProt P28335).
T3 construct: expressed in transfected cells; host or cells: CHO-K1
T3 sequence (P28335 33-458): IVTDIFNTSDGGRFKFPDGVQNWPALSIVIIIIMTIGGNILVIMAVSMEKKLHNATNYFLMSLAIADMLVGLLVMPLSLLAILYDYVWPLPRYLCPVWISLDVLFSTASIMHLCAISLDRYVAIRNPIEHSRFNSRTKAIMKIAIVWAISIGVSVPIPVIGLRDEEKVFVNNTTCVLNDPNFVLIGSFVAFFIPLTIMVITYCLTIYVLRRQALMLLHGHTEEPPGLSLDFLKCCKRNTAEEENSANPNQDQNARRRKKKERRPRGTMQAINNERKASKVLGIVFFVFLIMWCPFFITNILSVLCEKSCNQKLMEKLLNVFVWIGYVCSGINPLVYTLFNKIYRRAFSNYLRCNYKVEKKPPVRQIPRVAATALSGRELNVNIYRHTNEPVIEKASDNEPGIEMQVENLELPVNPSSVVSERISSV
The experiment is described as follows: In vitro functional response (aequorin luminescence) in CHO-K1 cells expressing 5-HT2C. The class given is cell-based. Conditions: for Emax: CHO-K1, relative to the response of 5-HT; for EC50: CHO-K1 cells, aequorin, Gα16. The procedure:
as §1, §2

A further experiment has as its target T4, 5-HT2C receptor (Homo sapiens, UniProt P28335).
T4 sequence (P28335 33-458): T3 sequence (P28335 33-458)
Conditions: R enantiomer versus S enantiomer; cited from earlier work.

Setting [5] is: 1 hr after topical dose of 300 μg (one 30 μL aliquot).
Setting [6] is: 3 hrs after topical dose of 300 μg (one 30 μL aliquot).
The mark [7] stands for this setting: 6 hrs after topical dose of 300 μg (one 30 μL aliquot).

T2 sequence (P41595 whole entry): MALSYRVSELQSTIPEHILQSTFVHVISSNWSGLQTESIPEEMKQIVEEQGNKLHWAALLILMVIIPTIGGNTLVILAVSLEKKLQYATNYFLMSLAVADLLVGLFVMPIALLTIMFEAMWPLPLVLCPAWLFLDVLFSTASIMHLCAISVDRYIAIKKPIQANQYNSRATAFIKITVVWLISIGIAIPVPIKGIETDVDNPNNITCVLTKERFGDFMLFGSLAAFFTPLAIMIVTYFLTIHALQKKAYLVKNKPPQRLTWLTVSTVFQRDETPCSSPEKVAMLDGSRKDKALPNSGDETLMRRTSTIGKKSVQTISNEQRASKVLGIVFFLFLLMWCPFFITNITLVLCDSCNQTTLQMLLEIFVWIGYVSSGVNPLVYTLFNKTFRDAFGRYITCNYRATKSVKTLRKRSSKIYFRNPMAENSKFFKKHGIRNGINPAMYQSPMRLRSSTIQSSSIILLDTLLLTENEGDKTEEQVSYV
T1 sequence (P28223 whole entry): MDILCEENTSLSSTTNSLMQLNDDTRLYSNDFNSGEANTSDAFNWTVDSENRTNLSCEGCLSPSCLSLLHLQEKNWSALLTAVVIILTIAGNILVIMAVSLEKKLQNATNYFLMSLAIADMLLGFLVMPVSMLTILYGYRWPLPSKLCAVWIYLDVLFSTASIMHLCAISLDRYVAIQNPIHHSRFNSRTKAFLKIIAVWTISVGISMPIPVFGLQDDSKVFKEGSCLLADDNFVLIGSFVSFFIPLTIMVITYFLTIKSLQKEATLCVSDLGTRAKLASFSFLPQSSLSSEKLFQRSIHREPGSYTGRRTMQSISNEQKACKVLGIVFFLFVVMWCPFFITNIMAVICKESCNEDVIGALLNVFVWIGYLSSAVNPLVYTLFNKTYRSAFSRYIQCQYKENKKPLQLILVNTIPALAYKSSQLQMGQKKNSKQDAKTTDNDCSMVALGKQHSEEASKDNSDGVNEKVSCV

For the compound `O=C1Nc2cc(Cl)c(Cl)cc2N2CCNCC12` (racemic) [Racemic, 8,9-dichloro-2,3,4,4a-tetrahydro-1H,6H-pyrazino[1,2-a]quinoxalin-5-one], the IOP % change in experiment [1] (setting [5]) is listed as −5.7%; in experiment [1] (setting [6]), −21.9%; in experiment [1] (setting [7]), −29.3%. In addition, the results for the “IOP Change mmHg” value in experiment [1] (setting [5]), in experiment [1] (setting [6]) and in experiment [1] (setting [7]) were −2.8 mmHg, −9.6 mmHg and −12.8 mmHg, respectively. In addition, the “IOP lowering efficacy (in words)” value in experiment [1] is “significant decrease in IOP”. In addition, the values for the Emax in experiment [2], in experiment [3] and in experiment [4] were 112%, 98% and 105%, respectively. The EC50 (in general, the concentration needed to bring the measured effect to its halfway point) stood at 0.0375 µM in experiment [2], 0.0768 µM in experiment [3] and 0.0042 µM in experiment [4].
In the case of `O=C1Nc2cc(Cl)c(Cl)cc2N2CCNC[C@H]12` [R enantiomer, (R)-8,9-dichloro-2,3,4,4a-tetrahydro-1H,6H-pyrazino[1,2-a]quinoxalin-5-one], the IOP % change is given as −12.9% in experiment [1] (setting [5]), −26.3% in experiment [1] (setting [6]) and −34.7% in experiment [1] (setting [7]). In addition, the “IOP Change mmHg” value in experiment [1] (setting [5]) is reported as −5.8 mmHg; in experiment [1] (setting [6]), −11.7 mmHg; in experiment [1] (setting [7]), −15.0 mmHg. The “IOP lowering efficacy (in words)” value in experiment [1] is listed as “significant decrease in IOP”. Moreover, the results for the maximal response (Emax) in experiment [2], in experiment [3] and in experiment [4] were 108%, 99% and 108%, respectively. Further, the EC50 in experiment [2] worked out at 0.0205 µM; in experiment [3], 0.0316 µM; in experiment [4], 0.0026 µM. In addition, the “potency relative to the S enantiomer at the 5-HT2C receptor” value on 5-HT2C receptor is “approximately 40 fold”.
With `O=C1Nc2cc(Cl)c(Cl)cc2N2CCNC[C@@H]12` [S enantiomer], the results for the Emax in experiment [2], in experiment [3] and in experiment [4] were 96%, 45% and 105%, respectively. Besides, the values for the concentration giving a half-maximal response (EC50) in experiment [2], in experiment [3] and in experiment [4] were 2.26 µM, 2.54 µM and 0.614 µM, respectively.
